Measured values: US9108930B2, “N1- and N2-carbamoyl-1,2,3-triazole serine hydrolase inhibitors and methods” (The Scripps Research Institute, priority 2011, dated 2015)
Several values for one entry are separate records, joined by “and”; a condition that tells them apart may be missing. Equal entries are not always repeated.

Assays:
APEH = target: T1, APEH (Mus musculus, UniProt Q8R146); test: Gel-based competitive ABPP, mouse T-cell proteome in vitro; type: biochemical
T1 sequence (Q8R146 1-732): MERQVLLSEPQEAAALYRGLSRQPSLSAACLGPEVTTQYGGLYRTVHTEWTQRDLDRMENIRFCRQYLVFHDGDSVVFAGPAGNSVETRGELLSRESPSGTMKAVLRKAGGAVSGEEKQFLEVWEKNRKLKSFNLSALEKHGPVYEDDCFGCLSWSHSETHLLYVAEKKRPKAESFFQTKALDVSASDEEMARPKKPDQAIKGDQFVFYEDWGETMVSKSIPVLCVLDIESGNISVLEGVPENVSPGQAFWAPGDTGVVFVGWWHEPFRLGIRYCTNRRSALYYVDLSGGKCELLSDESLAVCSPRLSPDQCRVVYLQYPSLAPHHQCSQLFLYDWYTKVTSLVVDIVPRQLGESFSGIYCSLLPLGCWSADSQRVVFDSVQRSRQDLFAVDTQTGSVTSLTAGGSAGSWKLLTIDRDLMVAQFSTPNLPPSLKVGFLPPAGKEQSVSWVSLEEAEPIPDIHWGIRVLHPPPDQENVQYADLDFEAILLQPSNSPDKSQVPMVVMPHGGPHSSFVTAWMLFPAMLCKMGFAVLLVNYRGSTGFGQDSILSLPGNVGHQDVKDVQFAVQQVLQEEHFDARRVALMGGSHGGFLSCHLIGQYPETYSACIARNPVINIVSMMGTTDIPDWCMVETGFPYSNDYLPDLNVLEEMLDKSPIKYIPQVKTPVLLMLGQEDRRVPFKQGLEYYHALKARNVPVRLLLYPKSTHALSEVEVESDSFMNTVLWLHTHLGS
Experimental: The carbamoyl triazole regioisomers were separated by gel chromatography and used for subsequent experiments. […] The compounds were screened at concentrations of 10 and 100 nM in mouse T-cell proteomes (FIG. 3e and FIG. 12).
Gel-based competitive ABPP experiments were performed as described previously. For competitive ABPP with FP-rhodamine, proteomes (1 mg/mL in PBS) were treated with FP-rhodamine (2 μM final concentration) in a […] total reaction volume. After 30 minutes at 25° C., the reactions were quenched with 2×SDS-PAGE loading buffer.
Proteomes were incubated with inhibitors for 30 minutes at 37° C. (in vitro) or for 4 h at 37° C. (in situ) at the indicated concentrations (n=3) prior to FP-rhodamine labeling. After SDS-PAGE and in-gel visualization, the percentage enzymatic activity remaining was determined by measuring the integrated optical intensity of the bands using IMAGER® software. IC50 values were determined from a dose-response curve generated using PRISM® software (GraphPad).

[1] = target: T2, acetylcholinesterase (ACHE) (Mus musculus, UniProt P21836); test: Competitive ABPP of ACHE recombinantly expressed in COS-7 cells; type: biochemical; conditions: 30 minutes at 37° C.
T2 construct: full-length cDNAs encoding mouse serine hydrolases were either transfected directly; host or cells: COS-7 cells
Experimental: ACHE was recombinantly expressed in COS-7 cells. Whole cell proteome was mixed 1:1 with soluble mouse brain proteome and treated with DMSO or AA74-1 in vitro at indicated concentrations for 30 minutes at 37° C., after which the samples were analyzed by competitive ABPP. Note that ACHE migrates as multiple bands by SDS-PAGE due to heterogeneous glycosylation. ACHE inhibition in vivo was not observed, as reflected by the equal signals for this enzyme in competitive ABPP results shown in FIG. 5b.
Briefly, full-length cDNAs encoding mouse serine hydrolases were either transfected directly (if available in a eukaryotic expression vector) or subcloned into pcDNA3 (Invitrogen). COS-7 or HEK-293 cells were grown to about 70% confluence in 10 cm dishes in complete medium (DMEM with L-glutamine, nonessential amino acids, sodium pyruvate, and FCS) at 37° C. and 5% CO2. The cells were transiently transfected by using the appropriate cDNA or empty vector control (“mock”) and the FUGENE® 6 (Roche Applied Science) transfection reagents following the manufacturers' protocols. After 48 hrs, the cells were washed twice with phosphate-buffered saline (PBS), and collected by scraping.

ABHD6 = target: T3, ABHD6 (Mus musculus, UniProt Q8R2Y0); test: ABPP-MudPIT of peritoneal macrophages from treated mice; set-up: from tissue; host or cells: thioglycolate-elicited peritoneal macrophages of mice; conditions: in vivo
T3 sequence (Q8R2Y0 1-336): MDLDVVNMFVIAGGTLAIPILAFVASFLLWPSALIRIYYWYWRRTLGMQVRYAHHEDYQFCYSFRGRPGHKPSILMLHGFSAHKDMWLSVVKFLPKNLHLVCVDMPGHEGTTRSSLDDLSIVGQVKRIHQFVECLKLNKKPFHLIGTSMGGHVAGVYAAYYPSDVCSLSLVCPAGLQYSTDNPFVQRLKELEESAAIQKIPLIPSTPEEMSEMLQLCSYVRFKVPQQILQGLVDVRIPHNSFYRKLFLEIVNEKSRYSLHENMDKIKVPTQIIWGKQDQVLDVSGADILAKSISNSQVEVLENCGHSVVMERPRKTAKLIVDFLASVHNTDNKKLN

T2 sequence (P21836 32-614): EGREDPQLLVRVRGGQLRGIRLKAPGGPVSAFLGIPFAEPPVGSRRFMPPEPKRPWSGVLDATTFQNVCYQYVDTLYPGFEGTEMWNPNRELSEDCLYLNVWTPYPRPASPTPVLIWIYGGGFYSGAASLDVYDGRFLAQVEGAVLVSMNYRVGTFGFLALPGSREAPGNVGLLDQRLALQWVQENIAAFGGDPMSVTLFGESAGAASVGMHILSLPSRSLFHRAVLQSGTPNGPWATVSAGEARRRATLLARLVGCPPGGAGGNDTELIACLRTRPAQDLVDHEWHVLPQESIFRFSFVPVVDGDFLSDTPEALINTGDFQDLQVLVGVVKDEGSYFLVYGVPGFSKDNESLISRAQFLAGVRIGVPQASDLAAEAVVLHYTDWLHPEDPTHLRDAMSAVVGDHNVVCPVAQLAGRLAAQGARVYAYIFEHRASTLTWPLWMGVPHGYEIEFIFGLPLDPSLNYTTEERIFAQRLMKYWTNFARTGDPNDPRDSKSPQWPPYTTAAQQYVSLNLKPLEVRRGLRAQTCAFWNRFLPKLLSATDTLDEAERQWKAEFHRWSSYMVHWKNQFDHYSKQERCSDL

Compound	inhibition of APEH (APEH; 10 nM)	IC50 (APEH; IC50 for APEH, in vitro, 30 minutes at 37° C., mouse)	ACHE inhibition in transfected cell proteome [1]	ABHD6 inhibition by spectral counting (ABHD6)
CC(C)CC(O)(CC(C)C)c1cnn(C(=O)N2CCCC2)n1 [AA74-1]	completely inhibited APEH	5 nM and 3 nM	not inhibited	
COc1ccc(-c2ccc(-c3cn(C(=O)N4CCCCC4c4ccccc4)nn3)cc2)cc1 (stereo not shown) [KT195]				complete inhibition of ABHD6
